Key:
[1] = biological target: Cyclin-dependent kinase 2/cyclin A (Homo sapiens, UniProt P24941); assay: Inhibition of human recombinant CDK2/cyclin A assessed as incorporation of [gamma-33P]-ATP into histone H1 substrate after 30 mins by scintillation counting; assay type: protein-complex assay
[2] = biological target: T1, Casein kinase I isoform alpha (Sus scrofa, UniProt O19175); assay: Inhibition of porcine brain CK1 assessed as incorporation of [gamma-33P]-ATP into RRKHAAIGpSAYSITA substrate after 30 mins by scintillation counting
T1 sequence (O19175 whole entry): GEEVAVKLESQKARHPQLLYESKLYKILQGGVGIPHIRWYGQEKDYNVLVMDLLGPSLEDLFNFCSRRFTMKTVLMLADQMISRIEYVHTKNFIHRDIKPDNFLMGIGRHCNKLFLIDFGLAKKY

[3] = biological target: Dual specificity protein kinase CLK1 (Homo sapiens, UniProt P49759); assay: Inhibition of CLK1
Chain of Dual specificity protein kinase CLK1 (P49759 whole entry): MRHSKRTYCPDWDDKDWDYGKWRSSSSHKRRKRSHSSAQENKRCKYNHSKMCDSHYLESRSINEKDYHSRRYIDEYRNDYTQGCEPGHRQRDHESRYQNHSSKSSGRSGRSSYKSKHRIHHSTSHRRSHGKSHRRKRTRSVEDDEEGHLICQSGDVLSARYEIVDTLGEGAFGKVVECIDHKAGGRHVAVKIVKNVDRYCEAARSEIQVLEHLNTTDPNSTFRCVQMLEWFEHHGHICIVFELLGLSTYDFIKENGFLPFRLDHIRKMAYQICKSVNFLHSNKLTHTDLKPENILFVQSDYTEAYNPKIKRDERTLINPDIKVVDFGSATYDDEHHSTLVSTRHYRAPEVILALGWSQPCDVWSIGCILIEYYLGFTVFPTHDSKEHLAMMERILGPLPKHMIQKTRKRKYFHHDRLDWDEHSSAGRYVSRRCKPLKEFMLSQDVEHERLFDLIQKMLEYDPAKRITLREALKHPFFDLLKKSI

[4] = biological target: Cyclin-dependent kinase 5/CDK5 activator 1 (Homo sapiens, UniProt Q00535); assay: Inhibition of human recombinant CDK5/p25 assessed as incorporation of [gamma-33P]-ATP into histone H1 substrate after 30 mins by scintillation counting; assay type: protein-complex assay
Chain of Cyclin-dependent kinase 5/CDK5 activator 1 (Q00535 whole entry, the tested form may be a part): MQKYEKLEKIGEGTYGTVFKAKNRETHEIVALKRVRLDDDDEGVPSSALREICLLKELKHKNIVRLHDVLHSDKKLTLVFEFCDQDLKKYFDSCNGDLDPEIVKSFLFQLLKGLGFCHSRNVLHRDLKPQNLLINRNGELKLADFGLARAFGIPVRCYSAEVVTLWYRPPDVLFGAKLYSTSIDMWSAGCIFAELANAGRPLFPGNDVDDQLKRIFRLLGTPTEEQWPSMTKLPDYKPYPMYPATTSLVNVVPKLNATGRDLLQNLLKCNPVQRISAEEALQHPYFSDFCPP
Chain of Cyclin-dependent kinase 5/CDK5 activator 1 (Q15078 whole entry, further chain, the tested form may be a part): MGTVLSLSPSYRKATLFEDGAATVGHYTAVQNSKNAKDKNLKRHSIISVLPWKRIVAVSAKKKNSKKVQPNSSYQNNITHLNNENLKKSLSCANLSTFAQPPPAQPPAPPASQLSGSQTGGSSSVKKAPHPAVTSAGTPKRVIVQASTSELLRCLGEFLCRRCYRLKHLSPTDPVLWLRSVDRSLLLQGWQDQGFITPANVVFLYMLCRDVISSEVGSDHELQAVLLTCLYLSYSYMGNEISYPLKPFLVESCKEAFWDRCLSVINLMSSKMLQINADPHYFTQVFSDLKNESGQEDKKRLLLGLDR

CDK9/cyclin T1 = CDK9/cyclin T1 (Homo sapiens, UniProt P50750); assay: Inhibition of human recombinant CDK9/cyclin T expressed in insect cells assessed as incorporation of [gamma-33P]-ATP in to pRB fragment (773 to 928) substrate after 30 mins by scintillation counting
Chain of CDK9/cyclin T1 (O60563 whole entry, the tested form may be a part): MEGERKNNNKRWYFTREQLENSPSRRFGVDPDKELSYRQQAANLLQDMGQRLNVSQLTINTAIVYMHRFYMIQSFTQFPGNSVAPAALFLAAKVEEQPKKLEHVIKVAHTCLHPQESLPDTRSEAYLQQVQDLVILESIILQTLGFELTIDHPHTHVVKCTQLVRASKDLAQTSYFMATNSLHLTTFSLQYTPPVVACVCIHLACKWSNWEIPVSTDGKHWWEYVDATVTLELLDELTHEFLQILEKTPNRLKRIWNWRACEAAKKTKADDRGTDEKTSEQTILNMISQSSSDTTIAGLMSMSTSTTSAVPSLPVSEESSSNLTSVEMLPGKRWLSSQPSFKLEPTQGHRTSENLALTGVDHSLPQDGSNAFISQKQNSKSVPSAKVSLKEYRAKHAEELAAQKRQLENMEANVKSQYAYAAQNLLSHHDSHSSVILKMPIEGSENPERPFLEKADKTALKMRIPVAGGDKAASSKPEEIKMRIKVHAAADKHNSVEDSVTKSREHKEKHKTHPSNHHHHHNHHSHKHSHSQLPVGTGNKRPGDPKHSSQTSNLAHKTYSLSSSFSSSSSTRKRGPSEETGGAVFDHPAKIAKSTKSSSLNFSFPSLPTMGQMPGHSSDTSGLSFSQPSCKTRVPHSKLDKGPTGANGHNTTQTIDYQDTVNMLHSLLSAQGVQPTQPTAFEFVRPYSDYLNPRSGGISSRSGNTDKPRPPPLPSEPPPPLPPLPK
Chain of CDK9/cyclin T1 (P50750 whole entry, the tested form may be a part): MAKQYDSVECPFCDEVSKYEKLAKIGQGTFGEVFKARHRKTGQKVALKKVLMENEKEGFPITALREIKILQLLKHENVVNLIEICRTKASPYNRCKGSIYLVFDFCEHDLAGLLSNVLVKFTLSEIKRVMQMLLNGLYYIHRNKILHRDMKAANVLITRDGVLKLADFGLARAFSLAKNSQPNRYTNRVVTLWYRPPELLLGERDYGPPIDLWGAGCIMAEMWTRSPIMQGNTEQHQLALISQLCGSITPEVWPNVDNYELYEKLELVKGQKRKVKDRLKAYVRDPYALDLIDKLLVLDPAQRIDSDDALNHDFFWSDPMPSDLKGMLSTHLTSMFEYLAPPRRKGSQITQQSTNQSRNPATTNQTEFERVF

[5] = biological target: T2, Glycogen synthase kinase 3 (Plasmodium falciparum (isolate 3D7), UniProt O77344); assay: Inhibition of Plasmodium falciparum GSK3
T2 sequence (O77344 whole entry): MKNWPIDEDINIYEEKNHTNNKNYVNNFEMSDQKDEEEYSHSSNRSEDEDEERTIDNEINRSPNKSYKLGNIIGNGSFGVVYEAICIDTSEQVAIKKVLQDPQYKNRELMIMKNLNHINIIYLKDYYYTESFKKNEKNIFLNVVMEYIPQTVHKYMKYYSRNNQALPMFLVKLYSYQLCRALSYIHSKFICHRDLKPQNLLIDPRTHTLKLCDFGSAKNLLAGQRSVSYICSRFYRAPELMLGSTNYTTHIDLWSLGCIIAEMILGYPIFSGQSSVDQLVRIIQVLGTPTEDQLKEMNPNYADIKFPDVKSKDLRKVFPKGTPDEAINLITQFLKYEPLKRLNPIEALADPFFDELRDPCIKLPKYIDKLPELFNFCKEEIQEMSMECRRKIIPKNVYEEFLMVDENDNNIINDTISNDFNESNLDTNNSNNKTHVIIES

[6] = biological target: Dual specificity tyrosine-phosphorylation-regulated kinase 1A (Rattus norvegicus, UniProt Q63470); assay: Inhibition of rat recombinant GST-fused DYRK1A expressed in Escherichia coli assessed as assessed as incorporation of [gamma-33P]-ATP into myelin basic protein after 30 mins by scintillation counting
[7] = Inhibition of M-phase starfish oocytes CDK1/cyclin B assessed as incorporation of [gamma-33P]-ATP into histone H1 substrate after 30 mins by scintillation counting; assay type: cell-based, Asteroidea; conditions: oocyte

Compound: O=C1Cc2c([nH]c3ccncc23)-c2ccccc2N1
- IC50 [1]: 2.1 µM
- IC50 [2]: > 10 µM
- IC50 [3]: > 10 µM
- IC50 [4]: 3 µM
- IC50 (CDK9/cyclin T1): 0.22 µM
- IC50 [5]: > 10 µM

Compound: O=C1Cc2c([nH]c3cc[n+](Cc4ccccc4)cc23)-c2ccccc2N1
- IC50 [1]: > 10 µM
- IC50 [2]: > 10 µM
- IC50 [3]: > 10 µM
- IC50 [6]: > 10 µM
- IC50 [4]: > 10 µM
- IC50 (CDK9/cyclin T1): 7.4 µM
- IC50 [7]: > 10 µM
- IC50 [5]: > 10 µM

Compound: O=C1Cc2c([nH]c3cc[n+]([O-])cc23)-c2ccccc2N1
- IC50 [1]: 6.2 µM
- IC50 [2]: > 10 µM
- IC50 [3]: > 10 µM
- IC50 [6]: > 10 µM
- IC50 [4]: 7.3 µM
- IC50 (CDK9/cyclin T1): 0.24 µM
- IC50 [7]: 5.7 µM
- IC50 [5]: > 10 µM

Compound: O=C1Cc2c([nH]c3ccc(Br)cc23)-c2ccccc2N1 [KENPAULLONE]
- IC50 [2]: > 10 µM
- IC50 [3]: > 10 µM
- IC50 [6]: > 10 µM
- IC50 (CDK9/cyclin T1): 0.064 µM
- IC50 [7]: 0.5 µM
- IC50 [5]: > 10 µM

Compound: O=C1Cc2c([nH]c3ccccc23)-c2ccccc2N1 [PAULLONE]
- IC50 [1]: 2.7 µM
- IC50 (CDK9/cyclin T1): 0.81 µM
- IC50 [7]: 3 µM
